From patent US20080293712A1, “Benzo[C][2,7]Naphtyridine Derivatives, Methods of Making Thereof and Methods of Use Thereof” (WYETH, priority 2007, published 2008)
pIC50: −log10 of the molar value.

Target: T1, PDK-1 (Homo sapiens, UniProt O15530)
T1 sequence (O15530 1-556): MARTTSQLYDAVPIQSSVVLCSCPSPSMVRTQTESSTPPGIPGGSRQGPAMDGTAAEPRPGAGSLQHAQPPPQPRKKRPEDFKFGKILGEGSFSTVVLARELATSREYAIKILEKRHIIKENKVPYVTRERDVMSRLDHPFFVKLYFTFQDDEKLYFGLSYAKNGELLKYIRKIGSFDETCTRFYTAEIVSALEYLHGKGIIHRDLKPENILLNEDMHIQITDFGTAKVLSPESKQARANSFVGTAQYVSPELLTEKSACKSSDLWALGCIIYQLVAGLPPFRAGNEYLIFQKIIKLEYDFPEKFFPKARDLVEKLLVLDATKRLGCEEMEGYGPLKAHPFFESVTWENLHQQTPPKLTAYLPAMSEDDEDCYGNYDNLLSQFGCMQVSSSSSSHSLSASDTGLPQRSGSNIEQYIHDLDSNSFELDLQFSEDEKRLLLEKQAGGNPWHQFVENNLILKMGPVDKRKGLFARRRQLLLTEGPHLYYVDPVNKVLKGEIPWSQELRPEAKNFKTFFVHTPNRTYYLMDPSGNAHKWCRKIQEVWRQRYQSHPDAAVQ
Experiment: PDK-1 kinase inhibition ELISA assay (phosphorylation of His6-tagged SGK1 S422D by PDK-1)
Assay type: biochemical
Settings: not given

| pIC50 | SMILES |
| --- | --- |
| 7.33 | COc1cc2ncc3c(N)nc(-c4cncc(Nc5ccccc5CO)c4)cc3c2cc1OC [Ib-196, (2-{[5-(4-amino-8,9-dimethoxybenzo[c][2,7]naphthyridin-2-yl)pyridin-3-yl]amino}phenyl)methanol] |
| 6.36 | COc1cccc(Nc2cncc(-c3cc4c(cnc5cc(OC)c(OC)cc54)c(N)n3)c2)c1 [Ib-176, 8,9-dimethoxy-2-{5-[(3-methoxyphenyl)amino]pyridin-3-yl}benzo[c][2,7]naphthyridin-4-amine] |

Same assay, conditions: PDK-1 ELISA, Table 11; read-out: Average IC50

| SMILES | pIC50 |
| --- | --- |
| COc1cc2ncc3c(N)nc(-c4cncc(OC[C@@H](N)CN5CCC[C@H]5c5nccs5)c4)cc3c2cc1OC [Ib-98, 2-[5-({(2S)-2-amino-3-[(2S)-2-(1,3-thiazol-2-yl)pyrrolidin-1-yl]propyl}oxy)pyridin-3-yl]-8,9-dimethoxybenzo[c][2,7]naphthyridin-4-amine] | 8.00 |
| COc1cc2ncc3c(N)nc(-c4cncc(OC[C@@H](N)COc5ccc(Cl)cn5)c4)cc3c2cc1OC [Ib-154, 2-[5-({(2R)-2-amino-3-[(5-chloropyridin-2-yl)oxy]propyl}oxy)pyridin-3-yl]-8,9-dimethoxybenzo[c][2,7]naphthyridin-4-amine] | 8.40 |
| COc1cc2ncc3c(N)nc(-c4cncc(OC[C@@H](N)CNCC5(c6ccccc6)CCOCC5)c4)cc3c2cc1OC [Ib-104, (2S)-3-{[5-(4-amino-8,9-dimethoxybenzo[c][2,7]naphthyridin-2-yl)pyridin-3-yl]oxy}-N1-[(4-phenyltetrahydro-2H-pyran-4-yl)methyl]propane-1,2-diamine] | 7.60 |
| COc1cc2ncc3c(N)nc(-c4cncc(OC[C@@H](N)Cc5c[nH]c6ccccc56)c4)cc3c2cc1OC [Ib-13, 2-(5-{[(2S)-2-amino-3-(1H-indol-3-yl)propyl]oxy}pyridin-3-yl)-8,9-dimethoxybenzo[c]-2,7-naphthyridin-4-amine] | 8.22 |
| COCCOc1cc2ncc3c(N)nc(Cl)cc3c2cc1OC [Ia-61, 2-Chloro-9-methoxy-8-(2-methoxyethoxy)benzo[c]-2,7-naphthyridin-4-amine] | 5.58 |
| COc1cc2ncc3c(N)nc(-c4cncc(OC[C@@H](N)CN(C)Cc5cccnc5)c4)cc3c2cc1OC [Ib-6, (2S)-3-{[5-(4-amino-8,9-dimethoxybenzo[c]-2,7-naphthyridin-2-yl)pyridin-3-yl]oxy}-N1-methyl-N1-(pyridin-3-ylmethyl)propane-1,2-diamine] | 8.40 |
| COc1cc2ncc3c(N)nc(-c4cncc(Nc5ccccc5C#N)c4)cc3c2cc1OC [Ib-178, 2-{[5-(4-amino-8,9-dimethoxybenzo[c][2,7]naphthyridin-2-yl)pyridin-3-yl]amino}benzonitrile] | 6.98 |
| CNC(=O)c1ccccc1Nc1cncc(-c2cc3c(cnc4cc(OC)c(OC)cc43)c(N)n2)c1 [Ib-187, 2-{[5-(4-amino-8,9-dimethoxybenzo[c][2,7]naphthyridin-2-yl)pyridin-3-yl]amino}-N-methylbenzamide] | 6.96 |
| COc1cc2ncc3c(N)nc(-c4cncc(OC[C@@H](N)CSc5ccccn5)c4)cc3c2cc1OC [Ib-159, 2-(5-{[(2R)-2-amino-3-(pyridin-2-ylthio)propyl]oxy}pyridin-3-yl)-8,9-dimethoxybenzo[c][2,7]naphthyridin-4-amine] | 8.52 |
| COc1cc2ncc3c(N)nc(-c4cncc(OC[C@@H](N)CNC(C)(C)c5ccccc5)c4)cc3c2cc1OC [Ib-90, (2S)-3-{[5-(4-amino-8,9-dimethoxybenzo[c][2,7]naphthyridin-2-yl)pyridin-3-yl]oxy}-N1-(1-methyl-1-phenylethyl)propane-1,2-diamine] | 8.15 |
| COc1cc2ncc3c(N)nc(-c4cncc(OC[C@@H](N)CN5CCC(=O)CC5)c4)cc3c2cc1OC [Ib-4, 1-[(2S)-2-amino-3-{[5-(4-amino-8,9-dimethoxybenzo[c]-2,7-naphthyridin-2-yl)pyridin-3-yl]oxy}propyl]piperidin-4-one] | 7.54 |
| COCCOc1cc2ncc3c(N)nc(N4CCC(O)CC4)cc3c2cc1OC [Ia-53, 1-[4-amino-9-methoxy-8-(2-methoxyethoxy)benzo[c]-2,7-naphthyridin-2-yl]piperidin-4-ol] | 5.69 |
| CCNCCOc1cncc(-c2cc3c(cnc4cc(OC)c(OC)cc43)c(N)n2)c1 [Ib-73, 2-(5-(2-(ethylamino)ethoxy)pyridin-3-yl)-8,9-dimethoxybenzo[c][2,7]naphthyridin-4-amine] | 7.33 |
| COc1cc2ncc3c(N)nc(-c4cncc(OC[C@@H](N)CO)c4)cc3c2cc1OC [Ib-10, (2S)-2-amino-3-{[5-(4-amino-8,9-dimethoxybenzo[c]-2,7-naphthyridin-2-yl)pyridin-3-yl]oxy}propan-1-ol] | 8.22 |
| COc1cc2ncc3c(N)nc(-c4cncc(OC[C@@H](N)CNC(C)(C)c5ccncc5)c4)cc3c2cc1OC [Ib-108, (2S)-3-{[5-(4-amino-8,9-dimethoxybenzo[c][2,7]naphthyridin-2-yl)pyridin-3-yl]oxy}-N1-(1-methyl-1-pyridin-4-ylethyl)propane-1,2-diamine] | 8.15 |
| COc1cc2ncc3c(N)nc(-c4cncc(OC[C@@H](N)Cn5ccnc5)c4)cc3c2cc1OC [Ib-9, 2-(5-{[(2S)-2-amino-3-(1H-imidazol-1-yl)propyl]oxy}pyridin-3-yl)-8,9-dimethoxybenzo[c]-2,7-naphthyridin-4-amine] | 7.70 |
| COCCOc1cc2ncc3c(N)nc(N(C)CC4OCCO4)cc3c2cc1OC [Ia-44, N^2-(1,3-dioxolan-2-ylmethyl)-9-methoxy-8-(2-methoxyethoxy)-N^2-methylbenzo[c]-2,7-naphthyridine-2,4-diamine] | 5.57 |
| COc1cc2ncc3c(N)nc(-c4cncc(OC[C@@H]5CN=C(Nc6ccccc6)N5)c4)cc3c2cc1OC [Ib-114, 2-(5-{[(5S)-2-anilino-4,5-dihydro-1H-imidazol-5-yl]methoxy}pyridin-3-yl)-8,9-dimethoxybenzo[c][2,7]naphthyridin-4-amine] | 7.09 |
| COc1cc2ncc3c(N)nc(-c4cncc(OC[C@@H](N)CNCC5(c6ccccc6)CCCC5)c4)cc3c2cc1OC [Ib-105, (2S)-3-{[5-(4-amino-8,9-dimethoxybenzo[c][2,7]naphthyridin-2-yl)pyridin-3-yl]oxy}-N1-[(1-phenylcyclopentyl)methyl]propane-1,2-diamine] | 7.39 |
| Nc1nc(-n2ccnc2)cc2c1cnc1cc(Br)ccc12 [Ia-37, 8-Bromo-2-(1H-imidazol-1-yl)benzo[c]-2,7-naphthyridin-4-amine] | 6.28 |
| CCCCN(C[C@H](N)COc1cncc(-c2cc3c(cnc4cc(OC)c(OC)cc43)c(N)n2)c1)S(=O)(=O)c1ccccc1 [Ib-77, N-[(2S)-2-amino-3-{[5-(4-amino-8,9-dimethoxybenzo[c][2,7]naphthyridin-2-yl)pyridin-3-yl]oxy}propyl]-N-butylbenzenesulfonamide] | 7.68 |
| COc1cc2ncc3c(N)nc(-c4cncc(OC[C@@H](N)COc5ccc(CCC#N)cc5)c4)cc3c2cc1OC [Ib-158, 3-(4-{[(2S)-2-amino-3-{[5-(4-amino-8,9-dimethoxybenzo[c][2,7]naphthyridin-2-yl)pyridin-3-yl]oxy}propyl]oxy}phenyl)propanenitrile] | 7.26 |

Other lines, results leading:

| pIC50 | SMILES |
| --- | --- |
| 7.57 | COc1cc2ncc3c(N)nc(-c4cncc(CCCN)c4)cc3c2cc1OC [Ib-256, 2-[5-(3-aminopropyl)pyridin-3-yl]-8,9-dimethoxybenzo[c][2,7]naphthyridin-4-amine] |
| 7.57 | COc1cc2ncc3c(N)nc(-c4cncc(CCC5(N)CCCCC5)c4)cc3c2cc1OC [Ib-258, 2-{5-[2-(1-aminocyclohexyl)ethyl]pyridin-3-yl}-8,9-dimethoxybenzo[c][2,7]naphthyridin-4-amine] |
| < 6.15 | COc1ccc(Oc2cncc(-c3cc4c(cnc5cc(OC)c(OC)cc54)c(N)n3)c2)cc1 [Ib-210, 8,9-dimethoxy-2-[5-(4-methoxyphenoxy)pyridin-3-yl]benzo[c][2,7]naphthyridin-4-amine] |
| 6.32 | COc1cc2ncc3c(N)nc(-c4cncc(Nc5ccncc5)c4)cc3c2cc1OC [Ib-201, 8,9-dimethoxy-2-[5-(pyridin-4-ylamino)pyridin-3-yl]benzo[c][2,7]naphthyridin-4-Amine] |
| 6.30 | COc1cc2ncc3c(N)nc(-c4cncc(Nc5ccc(C(=O)Nc6ccccc6)cc5)c4)cc3c2cc1OC [Ib-193, 4-{[5-(4-amino-8,9-dimethoxybenzo[c][2,7]naphthyridin-2-yl)pyridin-3-yl]amino}-N-phenylbenzamide] |
| 7.47 | COc1cc2ncc3c(N)nc(-c4cc(F)cc(CCCN)c4)cc3c2cc1OC [Ib-250, 2-(3-(3-Aminopropyl)-5-fluorophenyl)-8,9-dimethoxybenzo[c][2,7]naphthyridin-4-amine] |
| 6.85 | COc1cc2ncc3c(N)nc(-c4cncc(Nc5ccc(CO)cc5)c4)cc3c2cc1OC [Ib-194, (4-{[5-(4-amino-8,9-dimethoxybenzo[c][2,7]naphthyridin-2-yl)pyridin-3-yl]amino}phenyl)methanol] |
| 6.32 | COc1cc2ncc3c(N)nc(-c4cncc(Nc5ccccn5)c4)cc3c2cc1OC [Ib-199, 8,9-dimethoxy-2-[5-(pyridin-2-ylamino)pyridin-3-yl]benzo[c][2,7]naphthyridin-4-Amine] |
| 6.83 | COc1cc(F)cc(-c2cc3c(cnc4cc(OC)c(OC)cc43)c(N)n2)c1 [Ib-242, 2-(3-fluoro-5-methoxyphenyl)-8,9-dimethoxybenzo[c][2,7]naphthyridin-4-amine] |
